Drawing on ChEMBL document CHEMBL1146661, “The effect of 6-substituted-4',4"-difluorobenztropines on monoamine transporters and the muscarinic M1 receptor” (Bioorg Med Chem Lett, 2004), this text covers Selectivity and Ki for 14 compounds.

A word on the Ki: it is the equilibrium dissociation constant of an inhibitor or competing ligand from its target. High values mean a looser hold on the target, low ones a stronger hold on the target.

The species entered for assay [1] is Rattus norvegicus. In words: Relative affinity for dopamine transporter and muscarinic acetylcholine M1 receptor.
Assay [2] concerns the target Monoamine transporters; serotonin & dopamine (Rattus norvegicus) (UniProt P31652+P23977). In words: Relative affinity for dopamine and serotonin transporters. The format is protein assay.
Assay [3] concerns the target T1, Muscarinic acetylcholine receptor M1 (Rattus norvegicus, UniProt P08482).
T1 sequence (P08482 whole entry): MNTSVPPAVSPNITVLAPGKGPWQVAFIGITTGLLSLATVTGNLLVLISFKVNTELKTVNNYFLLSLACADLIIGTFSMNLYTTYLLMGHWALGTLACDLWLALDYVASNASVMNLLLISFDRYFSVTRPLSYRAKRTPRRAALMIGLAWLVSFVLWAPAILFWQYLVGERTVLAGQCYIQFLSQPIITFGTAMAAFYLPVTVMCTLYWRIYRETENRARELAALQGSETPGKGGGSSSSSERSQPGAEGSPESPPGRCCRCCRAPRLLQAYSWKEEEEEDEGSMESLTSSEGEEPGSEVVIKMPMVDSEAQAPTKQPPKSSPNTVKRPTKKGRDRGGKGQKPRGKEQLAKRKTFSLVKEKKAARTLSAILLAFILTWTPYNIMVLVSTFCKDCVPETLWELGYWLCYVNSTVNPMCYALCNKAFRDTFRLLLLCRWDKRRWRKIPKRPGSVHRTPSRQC
Nature of the assay: Displacement of [3H]pirenzepine from muscarinic acetylcholine receptor M1 of rat brain membrane. (Displacement assays read how much labelled ligand stays bound in the presence of the test substance.)

Assay [4] deals with Sodium-dependent dopamine transporter (Rattus norvegicus, UniProt P23977). In words: Displacement of [3H]WIN-35428 from dopamine transporter of rat brain membrane. Type of assay: tissue-based.
Sequence of Sodium-dependent dopamine transporter (P23977 whole entry): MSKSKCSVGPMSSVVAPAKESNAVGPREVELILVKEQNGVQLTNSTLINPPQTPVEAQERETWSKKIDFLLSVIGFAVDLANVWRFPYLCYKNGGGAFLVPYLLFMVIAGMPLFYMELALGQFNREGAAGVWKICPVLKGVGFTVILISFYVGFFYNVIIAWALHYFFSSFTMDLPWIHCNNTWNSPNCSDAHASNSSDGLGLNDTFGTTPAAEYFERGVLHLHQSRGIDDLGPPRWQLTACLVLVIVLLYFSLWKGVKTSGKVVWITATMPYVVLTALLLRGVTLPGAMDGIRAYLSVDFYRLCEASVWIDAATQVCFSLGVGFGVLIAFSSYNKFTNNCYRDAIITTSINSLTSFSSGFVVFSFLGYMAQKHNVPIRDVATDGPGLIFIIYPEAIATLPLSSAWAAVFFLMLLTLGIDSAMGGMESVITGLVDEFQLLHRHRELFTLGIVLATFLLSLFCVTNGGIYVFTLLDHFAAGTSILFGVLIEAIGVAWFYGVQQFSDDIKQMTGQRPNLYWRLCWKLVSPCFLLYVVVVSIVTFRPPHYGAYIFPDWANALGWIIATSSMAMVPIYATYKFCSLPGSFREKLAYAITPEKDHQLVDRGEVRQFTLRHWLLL
Assay [5] concerns the target T2, Sodium-dependent serotonin transporter (Rattus norvegicus, UniProt P31652). In words: Displacement of [3H]-citalopram from serotonin transporter of rat brain membrane. The format is tissue-based.
In assay [6] the target is Monoamine transporters; Norepininephrine & dopamine (Rattus norvegicus) (UniProt P23977+Q9WTR4). Nature of the assay: Relative affinity for dopamine and norepinephrine transporters. The format is protein assay.
The target in assay [7] is Norepinephrine transporter (Rattus norvegicus, UniProt Q9WTR4). Nature of the assay: Displacement of [3H]-[…] from norepinephrine transporter of rat brain membrane. The format is tissue-based.
Sequence of Norepinephrine transporter (Q9WTR4 whole entry): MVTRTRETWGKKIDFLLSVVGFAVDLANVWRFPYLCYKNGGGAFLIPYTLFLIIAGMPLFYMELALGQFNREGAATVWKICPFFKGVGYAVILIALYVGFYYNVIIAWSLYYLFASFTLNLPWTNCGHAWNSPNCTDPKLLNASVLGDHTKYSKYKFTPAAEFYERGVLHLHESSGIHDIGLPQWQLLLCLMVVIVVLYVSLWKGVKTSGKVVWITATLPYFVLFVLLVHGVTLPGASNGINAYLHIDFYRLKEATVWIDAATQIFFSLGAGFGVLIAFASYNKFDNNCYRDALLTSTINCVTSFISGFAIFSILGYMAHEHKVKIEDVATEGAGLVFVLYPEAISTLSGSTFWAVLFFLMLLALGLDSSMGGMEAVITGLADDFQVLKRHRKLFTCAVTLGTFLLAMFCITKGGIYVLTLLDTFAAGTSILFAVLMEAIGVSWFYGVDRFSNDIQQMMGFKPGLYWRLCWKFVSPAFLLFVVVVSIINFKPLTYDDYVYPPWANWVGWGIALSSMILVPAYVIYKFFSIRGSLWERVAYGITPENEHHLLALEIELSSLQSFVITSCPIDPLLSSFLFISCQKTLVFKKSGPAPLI
Assay [8] deals with T2, Sodium-dependent serotonin transporter. In words: Displacement of [3H]citalopram from serotonin transporter of rat brain membrane. The format is tissue-based.

T2 sequence (P31652 whole entry): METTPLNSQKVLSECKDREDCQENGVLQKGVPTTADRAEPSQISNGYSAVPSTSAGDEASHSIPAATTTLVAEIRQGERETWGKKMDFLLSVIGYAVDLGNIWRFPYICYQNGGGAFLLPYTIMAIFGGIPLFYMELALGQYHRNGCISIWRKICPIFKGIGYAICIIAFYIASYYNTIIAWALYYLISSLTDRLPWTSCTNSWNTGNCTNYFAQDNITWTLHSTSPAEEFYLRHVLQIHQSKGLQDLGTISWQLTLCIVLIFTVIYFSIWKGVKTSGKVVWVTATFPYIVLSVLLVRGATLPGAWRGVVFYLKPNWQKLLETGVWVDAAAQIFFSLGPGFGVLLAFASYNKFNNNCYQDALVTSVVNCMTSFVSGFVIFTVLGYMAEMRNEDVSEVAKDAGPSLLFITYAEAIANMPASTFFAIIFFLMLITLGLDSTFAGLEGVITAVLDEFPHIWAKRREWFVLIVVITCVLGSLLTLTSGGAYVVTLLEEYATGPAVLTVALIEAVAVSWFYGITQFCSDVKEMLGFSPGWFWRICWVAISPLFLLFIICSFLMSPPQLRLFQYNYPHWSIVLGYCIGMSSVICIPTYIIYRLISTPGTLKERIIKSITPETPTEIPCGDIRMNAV
Sequence of Monoamine transporters; serotonin & dopamine (Rattus norvegicus) (P23977 whole entry, looked up): as the sequence (P23977 whole entry) above
Sequence of Monoamine transporters; serotonin & dopamine (Rattus norvegicus) (P31652 whole entry, looked up): as the sequence (P31652 whole entry) above

`CCOC(=O)[C@H]1CC2C[C@H](OC(c3ccc(F)cc3)c3ccc(F)cc3)CC1N2C` (stereo partly specified): the Selectivity in assay [1] worked out at 2; in assay [2] it was 186; in assay [6] it was 49. Further, the Ki in assay [3] came out at 142 nM; in assay [4], 75.4 nM; in assay [5], 14000 nM; in assay [7], 3720 nM.

Turning to `O=C(Oc1ccccc1)[C@H]1CC2C[C@H](OC(c3ccc(F)cc3)c3ccc(F)cc3)CC1N2` (stereo partly specified), the Selectivity in assay [1] amounted to 48; in assay [2], 25; in assay [6] it was 18. The Ki in assay [3] is 8430 nM; in assay [4], 175 nM; in assay [5], 4440 nM; in assay [7], 3170 nM.

For `CN1C2CC(OC(c3ccc(F)cc3)c3ccc(F)cc3)CC1[C@@H](C(=O)O)C2` (stereo partly specified), the Selectivity came out at 8 in assay [1], 1430 in assay [2] and 238 in assay [6]. Moreover, the Ki turned out to be 46.8 nM in assay [3], 5.81 nM in assay [4], 8290 nM in assay [5] and 1380 nM in assay [7].

For the compound `COC(=O)[C@H]1CC2C[C@H](OC(c3ccc(F)cc3)c3ccc(F)cc3)CC1N2C` (stereo partly specified), the Selectivity in assay [1] was determined as 8; in assay [2], 289; in assay [6], 121. For the same compound, the Ki in assay [3] is 432 nM; in assay [4], 57.1 nM; in assay [5] it was 16500 nM; in assay [7] it was 6910 nM.

Regarding `CN1C2CC(OC(c3ccc(F)cc3)c3ccc(F)cc3)CC1[C@H](O)C2` (stereo partly specified), the Selectivity was determined as 1 in assay [1], 374 in assay [2] and 204 in assay [6]. Further, the Ki in assay [3] stood at 27 nM; in assay [4] it was 31.3 nM; in assay [5], 11700 nM; in assay [7], 6390 nM.

`CN1C2C[C@H](OC(c3ccc(F)cc3)c3ccc(F)cc3)CC1[C@@H](C(=O)OCCc1ccccc1)C2` (stereo partly specified): the figures for the Selectivity in assay [1], in assay [2] and in assay [6] were 20, 47 and 33, respectively. In addition, the inhibition constant (Ki) in assay [3] amounted to 3480 nM; in assay [4] it was 171 nM; in assay [5], 7960 nM; in assay [7] it was 5690 nM.

Consider `CN1C2CC(OC(c3ccc(F)cc3)c3ccc(F)cc3)CC1[C@@H](O)C2` (stereo partly specified), for which the Selectivity in assay [1] was determined as 8; in assay [2], 1450; in assay [6], 207. In addition, the Ki turned out to be 9090 nM in assay [8], 48.3 nM in assay [3], 6.28 nM in assay [4] and 1300 nM in assay [7].

Take `CC(C)OC(=O)[C@H]1CC2C[C@H](OC(c3ccc(F)cc3)c3ccc(F)cc3)CC1N2C` (stereo partly specified): the Selectivity was found to be 5 in assay [1], 98 in assay [2] and 68 in assay [6]. The Ki amounted to 784 nM in assay [3], 151 nM in assay [4], 14800 nM in assay [5] and 10200 nM in assay [7].

`CN1C2CCC1CC(OC(c1ccc(F)cc1)c1ccc(F)cc1)C2` (stereo unspecified) [DIFLUOROBENZTROPINE]: in assay [7], the affinity corresponds to a Ki of 844 nM.

For the compound `CC(C)COC(=O)[C@H]1CC2C[C@H](OC(c3ccc(F)cc3)c3ccc(F)cc3)CC1N2C` (stereo partly specified), the figures for the Selectivity in assay [1], in assay [2] and in assay [6] were 5, 54 and 45, respectively. Also, the Ki in assay [3] is 723 nM; in assay [4], 148 nM; in assay [5], 7960 nM; in assay [7], 6610 nM.

Turning to `COC(=O)[C@@H]1C2CC[C@@H](C[C@@H]1OC(=O)c1ccccc1)N2C` (single isomer, unassigned) [COCAINE], the affinity in assay [3], expressed as Ki, was 61400 nM.

In the case of `COS(=O)(=O)[C@H]1CC2C[C@H](OC(c3ccc(F)cc3)c3ccc(F)cc3)CC1N2C` (stereo partly specified), the Selectivity in assay [1] is 8; in assay [2], 170; in assay [6] it was 85. Moreover, the Ki in assay [3] turned out to be 617 nM; in assay [4], 81 nM; in assay [5], 13800 nM; in assay [7] it was 6880 nM.

Consider `CN1C2C[C@H](OC(c3ccc(F)cc3)c3ccc(F)cc3)CC1[C@@H](C(=O)Oc1ccccc1)C2` (stereo partly specified), for which the figures for the Selectivity in assay [1], in assay [2] and in assay [6] were 5, 35 and 13, respectively. Also, the Ki was 552 nM in assay [3], 107 nM in assay [4], 3730 nM in assay [5] and 1370 nM in assay [7].

Regarding `CN1C2C[C@H](OC(c3ccc(F)cc3)c3ccc(F)cc3)CC1[C@@H](C(=O)OCc1ccccc1)C2` (stereo partly specified), the Selectivity in assay [1] came to 19; in assay [2] it was 49; in assay [6], 52. Moreover, the Ki in assay [3] came out at 2270 nM; in assay [4] it was 119 nM; in assay [5], 5850 nM; in assay [7] it was 6210 nM.
